ChEMBL document CHEMBL3886262, “Azetidine compounds, compositions and methods of use” (2015)

Target: T1, Bifunctional epoxide hydrolase 2 (Homo sapiens, UniProt P34913)
T1 sequence (P34913 whole entry): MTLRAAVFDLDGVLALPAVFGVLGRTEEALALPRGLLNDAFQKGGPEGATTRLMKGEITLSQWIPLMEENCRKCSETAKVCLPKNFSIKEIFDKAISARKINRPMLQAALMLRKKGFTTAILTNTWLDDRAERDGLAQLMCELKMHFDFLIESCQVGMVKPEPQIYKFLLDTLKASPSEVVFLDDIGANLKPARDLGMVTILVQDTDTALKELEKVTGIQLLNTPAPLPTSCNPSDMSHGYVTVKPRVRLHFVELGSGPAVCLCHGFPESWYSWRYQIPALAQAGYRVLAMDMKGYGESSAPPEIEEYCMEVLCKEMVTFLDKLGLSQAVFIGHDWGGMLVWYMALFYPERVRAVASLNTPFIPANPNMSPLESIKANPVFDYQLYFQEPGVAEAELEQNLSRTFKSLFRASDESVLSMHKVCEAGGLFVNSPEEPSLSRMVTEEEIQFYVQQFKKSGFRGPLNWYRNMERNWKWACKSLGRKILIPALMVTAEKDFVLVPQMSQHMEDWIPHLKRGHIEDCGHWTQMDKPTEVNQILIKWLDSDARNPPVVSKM
Experiment: Enzyme Assay: Test compounds (1.6 mM stock in DMSO) were diluted 3 fold in series in DMSO and 0.8 microliters per well were added into 384-well NBS microplates (Corning). Resorufin epoxide substrate (20 uM stock in DMSO) was diluted to 5 μM with Assay Buffer (25 mM bis-Tris-HCl, pH 7.0, 1 mM DTT and 0.2 mg/ml BSA) and 8 microliters per well were added to the microplates. Thirty two microliters per well of 3.6 nM soluble epoxide hydrolase in Assay Buffer was then added. The samples were incubated at room temperature and assay signals were monitored by reading excitation at 530 nm and emission fluorescence at 590 nm on a PlateVision (Zeiss) reader every 2 minutes for 8 times.

Work on `O=C(NCc1ccc(Cl)cc1Cl)N1CC2(C1)CN(S(=O)(=O)c1ccccc1)C2` yielded an IC50 of 79 nM.
